Tests used:
Netrin-1 = molecular target: T1, Netrin-1 (Homo sapiens, UniProt O95631); assay: AVEXIS pairwise binding screen, human proteins; conditions: both bait/prey orientations
T1 construct: made in house; host or cells: HEK293-6E (general AVEXIS method)
Text: (§1) AVEXIS was used to test pairwise binding events in both bait/prey orientations between human DRAXIN, the derived 21 amino acid peptide, human Netrin family members, and two representative Netrin receptors (DCC, UNC5B). The Matn4-bait served as an internal prey-protein control and was used for normalization of the A486 nm values; conditioned medium (CM) serves as negative control; n=3.
(§2) To determine the binding specificity of DRAXIN/Netrin interactions, we carried out a pairwise binding screen between human DRAXIN and human Netrin family members. Except Netrin-5, we included all human Netrin family members consisting of two secreted γ-Netrins (Netrin-1 and Netrin-3) and one secreted (Netrin-4) and two GPI-linked β-Netrins (Netrin-G1 and Netrin-G2) in our binding study. Human DRAXIN and a 21 amino acid Netrin binding fragment derived thereof (SEQ ID NO.: 1) bound to Netrin-1 and Netrin-3 but not to human β-Netrin family members (FIG. 13).

Netrin-3 = molecular target: T2, Netrin-3 (Homo sapiens, UniProt O00634); assay: AVEXIS pairwise binding screen, human proteins; conditions: both bait/prey orientations
T2 construct: made in house; host or cells: HEK293-6E (general AVEXIS method)
T2 sequence (O00634 28-580): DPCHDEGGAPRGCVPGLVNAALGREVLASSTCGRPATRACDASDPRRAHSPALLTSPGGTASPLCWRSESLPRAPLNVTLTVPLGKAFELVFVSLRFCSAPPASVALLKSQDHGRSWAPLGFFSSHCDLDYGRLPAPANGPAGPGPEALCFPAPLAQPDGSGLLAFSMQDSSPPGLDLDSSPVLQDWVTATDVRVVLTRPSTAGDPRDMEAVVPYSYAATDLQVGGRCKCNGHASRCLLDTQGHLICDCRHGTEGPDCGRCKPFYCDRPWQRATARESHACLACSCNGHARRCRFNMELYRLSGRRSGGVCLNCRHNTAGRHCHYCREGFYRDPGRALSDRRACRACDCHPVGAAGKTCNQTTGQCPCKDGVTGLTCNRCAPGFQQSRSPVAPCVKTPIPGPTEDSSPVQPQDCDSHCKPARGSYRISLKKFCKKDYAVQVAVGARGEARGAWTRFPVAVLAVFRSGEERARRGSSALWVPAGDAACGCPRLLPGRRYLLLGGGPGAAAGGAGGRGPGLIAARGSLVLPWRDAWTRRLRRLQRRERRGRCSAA
Text: as §1, §2

[1] = system: human β-Netrin family members; assay: AVEXIS pairwise binding screen, human proteins; conditions: Netrin-4, Netrin-G1, Netrin-G2
Text: as §1, §2

Netrin1a [2] = assay: AVEXIS extracellular protein-protein interaction screen; format: binding, zebrafish; conditions: prey against 141 bait proteins, bait against 191 prey proteins
Text: To detect extracellular protein-protein interactions in a high-throughput manner we used the AVEXIS assay as described in Bushell et al. (Bushell et al., 2008) with minor modifications.
In brief: A zebrafish protein library enriched for mainly in neuronal tissues expressed secreted proteins and extracellular domains of cell surface proteins has been assembled. The library consists of prey and bait proteins. Preys are composed of the extracellular domain (ECD) of interest followed by a CD4 tag (rat Cd4d3+4) and a pentamerization domain derived from the rat Comp protein followed by β-lactamase. For the bait proteins the ECDs are fused to a CD4 tag and a biotinylation peptide. […] The proteins in the supernatants have been quantified and normalized.
The bait proteins have been immobilized on streptavidin coated 96 well microtiter plates (one bait/well) and incubated for 1 hour at room temperature. […] Then the absorbance at 486 nm of each well has been measured using a μQuant spectrophotometer (BIO-TEK Instruments, INC). […]
In the primary screen interactions were ‘called’ if the absorbance (at 486 nm) of a well after 1 h of incubation was ≥0.1 and 3 Sigma above the standard deviations of the mean of all wells. All interactions detected in the primary screen have been retested in a validation screen by using independently produced batches of proteins.

Netrin1a [3] = assay: AVEXIS domain mapping with monomeric prey proteins; format: binding, zebrafish; conditions: monomeric preys
Procedure: For the binding interface mapping experiments we used monomeric prey proteins. The concentration of the monomeric preys has been determined as described for the AVEXIS assay (β ? lactamase enzymatic activity). […] Both prey and bait orientations were tested in the domain mapping screen and two repeats for each orientation had been carried out.
To map down the Netrin1a binding region in DraxinA we generated a series of DraxinA truncations and deletions and tested them for binding against Netrin1a (FIG. 4).

Islr2 = assay: Vasn/Islr2 interaction used to adjust the AVEXIS screen; format: binding; conditions: Vasn (Slit-like2)/Islr2, in preparation
Procedure: The bait proteins have been immobilized on streptavidin coated 96 well microtiter plates (one bait/well) and incubated for 1 hour at room temperature. After 3 wash steps using HBS as wash buffer the baits have been probed by 50 μl of normalized prey proteins. After one-hour incubation the non-bound preys have been washed away by 2 washes with HBST (0.05% Tween) followed by two HBS washes. Then 50 μl of nitrocefin/well (0.1 mg/ml) has been added and incubated for 1 h at room temperature. Then the absorbance at 486 nm of each well has been measured using a μQuant spectrophotometer (BIO-TEK Instruments, INC). As a positive control for the prey proteins we used the Matn4 ECD as mono-biotinylated bait protein.

EVMPTLDMALFDWTDYEDLKP (listed as Homo sapiens) [SEQ ID NO.: 1]
binding to Netrin-1 (Netrin-1): bound
binding to Netrin-3 (Netrin-3): bound
binding to human β-Netrin family members [1]: not

EVMPTLDMTLFDWTDYEDMKP (Danio rerio) [21aa DraxinA derived peptide, 21aa fragment (aa232-252) of zebrafish DraxinA, as AVEXIS prey or bait]
binding specificity against protein library (Netrin1a [2]; listed as DraxinAaa232-252-bait): only interacted with the Ntn1a-prey
binding specificity against protein library (Netrin1a [2]; listed as DraxinAaa232-252-prey): only bound to the Ntn1a-bait
binding of DraxinA truncations and deletions to Netrin1a (Netrin1a [3]): sufficient for the binding

Vasn: Vasn (Slit-like2), binding partner of Islr2, reference weak interaction
Kd (Islr2): 12 µM

Source: patent US11505586B2, “Interaction of Draxin and γ-netrins” (Max-Planck-Gesellschaft zur Foerderung der Wissenschaften …, priority 2014, dated 2022)
